Values quoted from earlier work in patent US20250275948A1, “(N-[4-(2,3-DIHYDRO-1H-INDEN-5-YL)-1,3-THIAZOL-2-YL]-2-[4-METHYL-4-(NAPHTHALEN-2-YL)-2,5-DIOXOIMIDAZOLIDIN-1-YL]ACETAMIDE AS STABILIZER OF CLOCK:BMAL1 INTERACTION FOR THE TREATMENT OF CIRCADIAN RHYTHM DISEASES AND DISORDERS” (KOC UNIVERSITESI, priority 2022, published 2025).

Experiments:
Conditions in all cases: cited from earlier work
[1] = test system: REV-ERB
[2] = test system: CRYs
[3] = test system: gluconeogenesis

Row | SMILES | effect on REV-ERB repressor function [1] | effect on stability of CRYs [2] | effect on gluconeogenesis [3]
1 | CC(C)(C)OC(=O)CN(Cc1ccc(Cl)cc1)Cc1ccc([N+](=O)[O-])s1 [GSK4112] | enhance REV-ERB's repressor function toward Bmal1 transcription |  | 
2 | CS(=O)(=O)N(Cc1ccco1)CC(O)Cn1c2ccccc2c2ccccc21 (stereo not drawn) [KL001] |  | increases stability of the CRYs | suppresses the gluconeogenesis
